Our source for the RP-LC retention time values is the METLIN SMRT retention time set (Domingo-Almenara et al. 2019).

The data set in a line: gradient 5% acetonitrile 3 min, to 50% in 2 min, to 85% in 15 min, held 3 min, 100 µL/min. Particulars: column: Zorbax Extend-C18 2.1 x 50 mm; eluents: water / acetonitrile, 0.1% formic acid. In outline:
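Mixtures of ~100 pure standards were chromatographed on a Zorbax Extend-C18 column (2.1 × 50 mm, 1.8 μm) at 100 μL/min using water and acetonitrile, each with 0.1% formic acid. Detection used a quadrupole time-of-flight mass spectrometer in positive and negative ionization mode, and data collection spanned 3 months. Retention time was obtained from adduct peaks picked computationally and each checked manually.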
Regarding `Cc1cc(=O)n(CC(=O)NCc2ccccc2)c(N(C)Cc2ccccc2)n1`, the RP-LC retention time amounted to 684 s.

`CCc1nc2cc(-c3noc(-c4ccccc4C)n3)ccc2o1` gave an RP-LC retention time of 1280 s.

`CC(C)CC(=O)N1CC(c2nc(-c3ccc(F)cc3)no2)C2(CCOCC2)C1` (centres undefined) registered an RP-LC retention time of 926 s.

As for `O=C1CCCCC(Cc2ccccc2)(C(=O)NCc2cccc(C(F)(F)F)c2)N1` (centres undefined), the RP-LC retention time came out at 893 s.

The compound `O=C(C1CC1)N1CCCn2nc(-c3ccccc3)cc2C1` yielded an RP-LC retention time of 739 s.

With `COC(=O)c1cc(C(=O)OC)cc(-n2ccc3nc(C)c(C(=O)OC)cc3c2=O)c1`, the RP-LC retention time worked out at 844 s.

On to `CCOC(=O)c1ccccc1NC(=O)Cn1cnc2nc(N3CCC(C(=O)NC)CC3)sc2c1=O`, for which the RP-LC retention time stood at 701 s.

In turn, `Cc1ccc(CN2CCN(C3CCN(C(=O)Nc4ccc5c(c4)OCCO5)CC3)C2=O)cc1` had an RP-LC retention time of 765 s.

`COC(=O)c1ccc(C(=O)OC)c(NC(=O)N2CCC(CN3CC(C)CC(C)C3)CC2)c1` (centres undefined) yielded an RP-LC retention time of 722 s.

The compound `CCn1ncn2cc(S(=O)(=O)Nc3ccc(C)c(C)c3)cc2c1=O` showed an RP-LC retention time of 930 s.

Regarding `COc1cccc(Cn2c(=O)c3sccc3n(Cc3nc(-c4ccc(F)c(Cl)c4)no3)c2=O)c1`, the RP-LC retention time worked out at 1170 s.

For `CCOC(=O)C(C)NC(=O)N1CCc2cc(-c3ccc(C(=O)N4CCOCC4)cc3)ccc21` (centres undefined), the RP-LC retention time was found to be 751 s.

Compound `Cc1nc(CC(=O)NCc2ccc(F)cc2F)sc1C(=O)NCC(C)C` had an RP-LC retention time of 757 s.

`COc1cccc(Sc2ccc(N3CCC(C(=O)N4CCN(c5ccccn5)CC4)CC3)nn2)c1` came in with an RP-LC retention time of 616 s.

`O=C(Nc1cccs1)Nc1ccccc1NC(=O)c1ccccc1C(F)(F)F` gave an RP-LC retention time of 805 s.

For `CC(C)NC(=O)C1CCN(C(=O)c2ncn3c2COC(c2ccccc2)C3)CC1` (centres undefined), the RP-LC retention time came out at 686 s.

On to `CC1=C(C(=O)N2CCOCC2)C(c2ccc(Cl)cc2)C2=C(CC(C)(C)CC2=O)N1` (centres undefined), for which the RP-LC retention time is 710 s.

The compound `COC(=O)c1ccc(-c2csc(NC(=O)c3cc(C)no3)n2)cc1` came in with an RP-LC retention time of 846 s.

The compound `COc1ccc(-c2cn3ccn(-c4ccc(Cl)cc4)c(=O)c3n2)cc1OC` yielded an RP-LC retention time of 887 s.

For `COc1ccc(N2CCN(c3nccc4ccc(C(=O)NC5CCCCCC5)cc34)CC2)cc1`, the RP-LC retention time amounted to 835 s.

`COc1ccc(C)cc1NC(=O)N1CC(c2nc(C(C)C)nn2C)C1` gave an RP-LC retention time of 710 s.

With `Cc1cc(N2CCN(c3ccccn3)CC2)n2nc(-c3cccc(Cl)c3)c(C)c2n1`, the RP-LC retention time amounted to 828 s.

`COc1ccc(N2C=C(C(=O)N3CCCC3)S(=O)(=O)c3ccc(Cl)cc32)cc1` yielded an RP-LC retention time of 856 s.

`COC(=O)C1=CN(c2cccc(Br)c2)c2cc(F)ccc2S1(=O)=O` displayed an RP-LC retention time of 903 s.

Compound `COC(=O)CNC(=O)NCCc1noc(C2CC2)n1` yielded an RP-LC retention time of 598 s.

In the case of `COc1cccc(NC(=O)c2c(C)oc3nc(C)nc(N4CCCC4)c23)c1`, the RP-LC retention time worked out at 743 s.

Compound `Cc1cccc(OCc2nc(-c3ccnc(N4CCCC4)c3)no2)c1` returned an RP-LC retention time of 725 s.

In turn, `O=C(Nc1ccc(C(F)(F)F)cc1)C1CCN(S(=O)(=O)c2ccc3[nH]c(=O)sc3c2)CC1` yielded an RP-LC retention time of 924 s.

As for `CCOCCCNC(=O)C1CCCN(c2nnc(C)c3c(C)n(-c4ccc(Cl)cc4)nc23)C1` (centres undefined), the RP-LC retention time is 688 s.

In turn, `CCOc1ccc(C(=O)NCCc2c[nH]c3ccc(C)cc23)cc1OCC` returned an RP-LC retention time of 910 s.

As for `COCCNc1nc(Nc2ccc(C)c(C)c2)c2nccnc2n1`, the RP-LC retention time came out at 597 s.

Turning to `CCOCCCNCc1ccc(-c2cc(Cl)ccc2Cl)o1`, the RP-LC retention time is 753 s.

`Cn1c(C(N)=O)c(N2CCCC2=O)c2cc(F)ccc21` showed an RP-LC retention time of 669 s.

`CS(=O)(=O)NCCS(=O)(=O)N1CCN(c2ccccc2F)CC1`: the RP-LC retention time is 723 s.

As for `CCC(=O)N(C1CCOCC1)C1CCN(Cc2cc(F)c(F)cc2F)CC1`, the RP-LC retention time was 608 s.

Regarding `CC(C)c1cc(C(=O)Nc2cccc(Cl)c2)nn1C1CCS(=O)(=O)C1` (centres undefined), the RP-LC retention time is 994 s.

Regarding `O=c1c2cc3c(cc2nc(SCc2nc(-c4cccc(F)c4)no2)n1Cc1ccncc1)OCO3`, the RP-LC retention time was found to be 795 s.

`O=C(CCCc1nc2cccnc2n1Cc1ccccc1)N1CCN(c2ccccn2)CC1` gave an RP-LC retention time of 603 s.

`c1ccc(-n2nnc(-c3noc(-c4cccnc4)n3)c2-c2ccncc2)cc1`: the RP-LC retention time was found to be 737 s.

Turning to `CCc1ccccc1NS(=O)(=O)c1cc(-c2[nH]ncc2C(=O)N(C)C)oc1C`, the RP-LC retention time turned out to be 729 s.

Take `OCCNCc1ccc(-c2cccc(Cl)c2)o1`: the RP-LC retention time worked out at 987 s.

Consider `O=C(Cn1cnc(-c2ccc(F)cc2)cc1=O)NCc1cccs1`, for which the RP-LC retention time stood at 703 s.

For the compound `CS(=O)(=O)N1CCC(OC2CCN(C(=O)Nc3cccc(Cl)c3F)CC2)CC1`, the RP-LC retention time was 787 s.

`Cc1cc(C)cc(N2CCC(NC(=O)c3sccc3C)C2=O)c1` (centres undefined) gave an RP-LC retention time of 916 s.

With `CCOC(=O)CNC(=O)N1CCCN(C2=NS(=O)(=O)C(c3ccccc3)=C2C)CC1`, the RP-LC retention time came to 718 s.

`COC(=O)c1ccc2c(=O)n(-c3cccc(Cl)c3)c(N3CCC(C(N)=O)CC3)nc2c1` came in with an RP-LC retention time of 781 s.

`Cc1ccccc1C(=O)N1C[C@@H]2C[C@H]1C[C@@H]2NS(=O)(=O)c1cccs1` showed an RP-LC retention time of 776 s.

Compound `COCC(C)NS(=O)(=O)c1c(C)[nH]c(=O)[nH]c1=O` (centres undefined) yielded an RP-LC retention time of 570 s.

`COCCn1cc2c3c(cccc31)CN(C(=O)Nc1cc(F)ccc1F)CC2` displayed an RP-LC retention time of 938 s.

Compound `O=c1ccc(-c2ccc3c(c2)OCO3)nn1CCc1nc(-c2cccnc2)no1` registered an RP-LC retention time of 720 s.

With `CCc1nc(-c2csc(S(=O)(=O)N3CCCC(C(=O)NCc4ccc(C)o4)C3)c2)no1` (centres undefined), the RP-LC retention time amounted to 946 s.

As for `COc1cccc(Cn2cc(S(=O)(=O)N3CCCCC3)ccc2=O)c1`, the RP-LC retention time is 882 s.

`Cc1ccc(-c2nnc(-c3nc(NCc4cccnc4)c4ccccc4n3)o2)cc1` came in with an RP-LC retention time of 676 s.

In the case of `Cn1c(N2CCC(C(=O)N3CCN(c4ccccn4)CC3)CC2)cc(=O)n(C)c1=O`, the RP-LC retention time is 578 s.

For the compound `O=C(NC1CCCCCC1)C1CCN(S(=O)(=O)c2cc(-c3noc(C4CC4)n3)cs2)CC1`, the RP-LC retention time was 1040 s.

In turn, `CCOC(=O)c1cccc(Nc2c(C(=O)N3CCC(C)CC3)cnc3nc(C)ccc23)c1` displayed an RP-LC retention time of 666 s.

`COc1ccc(-c2ncc3c(n2)CCN(C(=O)c2ccc(Cl)cc2)C3)cc1` came in with an RP-LC retention time of 969 s.

`Cc1cc(=O)n2c(-c3ccc(NC(=O)Nc4ccc(F)c(F)c4)cc3)csc2n1` gave an RP-LC retention time of 776 s.

For the compound `CN(C)C1(CC2CC2)CCN(C(=O)C2CCCC2)CC1`, the RP-LC retention time was found to be 604 s.

In the case of `COC(=O)c1c(-c2ccc(C)cc2)csc1NC(=O)C1CCN(C(C)=O)CC1`, the RP-LC retention time worked out at 932 s.

`CCNS(=O)(=O)c1cc(-c2csc(C)n2)ccc1OC` returned an RP-LC retention time of 784 s.

In turn, `O=S(=O)(c1ccc(Cl)s1)N1CCc2nc(-c3ccccc3)ncc2C1` showed an RP-LC retention time of 1170 s.

For `COc1ccc(C(=O)N2CCC3(CC2)NC(=O)c2ccc(Cl)cc2N3)c(C)c1`, the RP-LC retention time was found to be 800 s.

As to `O=C(NCc1cccc(C(F)(F)F)c1)C1CCN(c2cnc3nccnc3c2)CC1`, the RP-LC retention time worked out at 754 s.

In the case of `COC(=O)C1=CN(c2ccc(C)c(F)c2)c2ccc(F)cc2S1(=O)=O`, the RP-LC retention time came out at 920 s.

`CCOc1ccc(CCNC(=O)c2nc(CCS(=O)(=O)c3ccccc3)no2)cc1OCC` showed an RP-LC retention time of 900 s.

`Cc1noc(C)c1Cc1ccc(C(=O)N2CCC3(CCC3O)CC2)o1` (centres undefined) came in with an RP-LC retention time of 698 s.

`O=C1COc2cc(S(=O)(=O)N3CCCC3C(=O)N3CCc4ccccc43)c(Cl)cc2N1` (centres undefined) gave an RP-LC retention time of 795 s.

In the case of `Cc1nc2nc(-c3ccc(Cl)cc3)nn2c(C)c1CC(=O)N1CCCC1`, the RP-LC retention time worked out at 780 s.

The compound `Cc1ccc(CNC(=O)C2CCN(S(=O)(=O)c3c(C)[nH]c(C)c3C(=O)N3CCCC3)CC2)cc1` registered an RP-LC retention time of 720 s.

Turning to `COc1ccc2[nH]c(C(=O)Nc3ccccc3)cc2c1`, the RP-LC retention time came out at 880 s.

`Cc1ccccc1Cn1cc(-c2ccncc2)cc1C(=O)N1CCOCC1` registered an RP-LC retention time of 621 s.

`CS(=O)(=O)c1nc2ccc(NS(=O)(=O)c3ccc4c(c3)CCC4)cc2s1` returned an RP-LC retention time of 987 s.

In turn, `COc1ccc2c(c1)C1(CCN(C(=O)c3cccc(F)c3)C1)C(=O)N2C` (centres undefined) showed an RP-LC retention time of 782 s.

`CCS(=O)(=O)N1CC(=O)N(c2ccc(F)cc2C)C(C)(C(=O)NCc2ccc(F)cc2)C1` (centres undefined) displayed an RP-LC retention time of 832 s.

Compound `CC(=O)Nc1cccc(NC(C)=O)n1` gave an RP-LC retention time of 609 s.

`O=C(CC1CCN(C(=O)NC2CCCCC2)CC1)N1CCN(c2ccccn2)CC1` came in with an RP-LC retention time of 598 s.

For `NS(=O)(=O)c1ccc2nc(NC(=O)COc3ccc(Cl)cc3)sc2c1`, the RP-LC retention time is 766 s.

As to `CN(C)C(=O)c1cn(C2CN(C(=O)c3cccc4[nH]ccc34)C2)nn1`, the RP-LC retention time turned out to be 608 s.
